Laboratory results taken from paper PMC11859928, “Design, Synthesis, and Antiproliferative Activity of Novel Indole/1,2,4-Triazole Hybrids as Tubulin Polymerization Inhibitors” (Pharmaceuticals, 2025).

How the values were obtained:
Experiment in all cases: NCI one-dose assay
Assay type in all cases: cell-based
[1] = tested on: A549/ATCC; conditions: Homo sapiens, Non-small cell lung cancer, read-out: Cell growth inhibition %
[2] = tested on: ACHN; conditions: Homo sapiens, Renal cancer, read-out: Cell growth inhibition %
[3] = tested on: BT-549; conditions: Homo sapiens, BT-549, Breast cancer, read-out: Cell growth inhibition %
[4] = tested on: CAKI-1; conditions: Homo sapiens, CAKI-1, Renal cancer, read-out: Cell growth inhibition %
[5] = tested on: CCRF-CEM; conditions: Homo sapiens, Leukemia, read-out: Cell growth inhibition %
[6] = tested on: COLO 205; conditions: Homo sapiens, COLO 205, Colon cancer, read-out: Cell growth inhibition %
[7] = tested on: DU-145; conditions: Homo sapiens, DU-145, Prostate cancer, read-out: Cell growth inhibition %
[8] = tested on: EKVX; conditions: Homo sapiens, Non-small cell lung cancer, read-out: Cell growth inhibition %
[9] = tested on: HCC-2998; conditions: Homo sapiens, HCC-2998, Colon cancer, read-out: Cell growth inhibition %
[10] = tested on: HCT-116; conditions: Homo sapiens, HCT-116, Colon cancer, read-out: Cell growth inhibition %
[11] = tested on: HCT-15; conditions: Homo sapiens, HCT-15, Colon cancer, read-out: Cell growth inhibition %
[12] = tested on: HL-60(TB); conditions: Homo sapiens, Leukemia, read-out: Cell growth inhibition %
[13] = tested on: HOP-62; conditions: Homo sapiens, HOP-62, Non-small cell lung cancer, read-out: Cell growth inhibition %
[14] = tested on: HS 578 T; conditions: Homo sapiens, Breast cancer, read-out: Cell growth inhibition %
[15] = tested on: HT29; conditions: Homo sapiens, HT-29, HT29, Colon cancer, read-out: Cell growth inhibition %
[16] = tested on: K-562; conditions: Homo sapiens, K562, K-562, Leukemia, read-out: Cell growth inhibition %
[17] = tested on: KM12; conditions: Homo sapiens, KM12, Colon cancer, read-out: Cell growth inhibition %
[18] = tested on: M14; conditions: Homo sapiens, M14, Melanoma, read-out: Cell growth inhibition %
[19] = tested on: MCF7; conditions: Homo sapiens, MCF7, Breast cancer, read-out: Cell growth inhibition %
[20] = tested on: MDA-MB-231/ATCC; conditions: Homo sapiens, Breast cancer, read-out: Cell growth inhibition %
[21] = tested on: MDA-MB-468; conditions: Homo sapiens, MDA-MB-468, Breast cancer, read-out: Cell growth inhibition %
[22] = tested on: MOLT-4; conditions: Homo sapiens, MOLT-4, Leukemia, read-out: Cell growth inhibition %
[23] = tested on: NCI-H322M; conditions: Homo sapiens, Non-small cell lung cancer, read-out: Cell growth inhibition %
[24] = tested on: NCI-H522; conditions: Homo sapiens, NCI-H522, Non-small cell lung cancer, read-out: Cell growth inhibition %
[25] = tested on: OVCAR-3; conditions: Homo sapiens, OVCAR-3, Ovarian cancer, read-out: Cell growth inhibition %
[26] = tested on: OVCAR-4; conditions: Homo sapiens, OVCAR-4, Ovarian cancer, read-out: Cell growth inhibition %
[27] = tested on: SF-268; conditions: Homo sapiens, SF-268, CNS cancer, read-out: Cell growth inhibition %
[28] = tested on: SF-295; conditions: Homo sapiens, SF-295, CNS cancer, read-out: Cell growth inhibition %
[29] = tested on: SK-MEL-28; conditions: Homo sapiens, SK-MEL-28, Melanoma, read-out: Cell growth inhibition %
[30] = tested on: SK-MEL-2; conditions: Homo sapiens, SK-MEL-2, Melanoma, read-out: Cell growth inhibition %
[31] = tested on: SK-OV-3; conditions: Homo sapiens, SK-OV-3, Ovarian cancer, read-out: Cell growth inhibition %
[32] = tested on: SN12C; conditions: Homo sapiens, Renal cancer, read-out: Cell growth inhibition %
[33] = tested on: SNB-19; conditions: Homo sapiens, SNB-19, CNS cancer, read-out: Cell growth inhibition %
[34] = tested on: SR; conditions: Homo sapiens, Leukemia, read-out: Cell growth inhibition %
[35] = tested on: SW-620; conditions: Homo sapiens, SW-620, Colon cancer, read-out: Cell growth inhibition %
[36] = tested on: T-47D; conditions: Homo sapiens, T47D, Breast cancer, read-out: Cell growth inhibition %
[37] = tested on: UACC-257; conditions: Homo sapiens, UACC-257, Melanoma, read-out: Cell growth inhibition %

Compound	inhibition at 10 µM [1]	inhibition at 10 µM [2]	inhibition at 10 µM [3]	inhibition at 10 µM [4]	inhibition at 10 µM [5]	inhibition at 10 µM [6]	inhibition at 10 µM [7]	inhibition at 10 µM [8]	inhibition at 10 µM [9]	inhibition at 10 µM [10]	inhibition at 10 µM [11]	inhibition at 10 µM [12]	inhibition at 10 µM [13]	inhibition at 10 µM [14]	inhibition at 10 µM [15]	inhibition at 10 µM [16]	inhibition at 10 µM [17]	inhibition at 10 µM [18]	inhibition at 10 µM [19]	inhibition at 10 µM [20]	other results
COc1ccc(C(=O)CSc2nnc(-c3c[nH]c4ccccc34)n2-c2ccccc2)cc1 [Compound 6g, 2-((5-(1H-Indol-3-yl)-4-phenyl-4H-1,2,4-triazol-3-yl)thio)-1-(4-methoxyphenyl) Ethenone]	26%	77.2%	75.3%	38.5%	17.5%	15.2%	31.1%	70.7%	22.2%	47.5%	26.7%	18.7%	91.2%	84.5%	16.9%	41.8%	11.9%	24.3%	54.4%	54.4%	inhibition at 10 µM [21]: 40.2%; inhibition at 10 µM [22]: 17.9%; inhibition at 10 µM [23]: 41.6%; inhibition at 10 µM [24]: 54.3%; inhibition at 10 µM [25]: 46.4%; inhibition at 10 µM [26]: 99.4%; inhibition at 10 µM [27]: 59%; inhibition at 10 µM [28]: 63.8%; inhibition at 10 µM [29]: 50.3%; inhibition at 10 µM [30]: 28%; inhibition at 10 µM [31]: 33.7%; inhibition at 10 µM [32]: 55.6%; inhibition at 10 µM [33]: 70.2%; inhibition at 10 µM [34]: 20.3%; inhibition at 10 µM [35]: 13.7%; inhibition at 10 µM [36]: 43.3%; inhibition at 10 µM [37]: 40.5%
C=CCn1c(SC/C(=N\O)c2ccc(Cl)cc2)nnc1-c1c[nH]c2ccccc12 [Compound 7e, (Z)-2-((4-allyl-5-(1H-indol-3-yl)-4H-1,2,4-triazol-3-yl)thio)-1-(4-chlorophenyl) Ethanone Oxime]	6.38%	10.2%	14.4%	25.4%	17.2%	0.1%	5.88%	27.1%	8.7%	36.1%	21.7%	35%	7.33%	12.7%	5.77%	39.3%	4.48%	16%	13.3%	23.1%	inhibition at 10 µM [21]: 43.1%; inhibition at 10 µM [22]: 40%; inhibition at 10 µM [23]: 11.9%; inhibition at 10 µM [24]: 19.5%; inhibition at 10 µM [25]: -7.49%; inhibition at 10 µM [26]: 19.9%; inhibition at 10 µM [27]: -1.1%; inhibition at 10 µM [28]: 25%; inhibition at 10 µM [29]: 0.08%; inhibition at 10 µM [30]: 3.64%; inhibition at 10 µM [31]: 3.52%; inhibition at 10 µM [32]: 14.9%; inhibition at 10 µM [33]: 12.6%; inhibition at 10 µM [34]: 12.1%; inhibition at 10 µM [35]: 9.5%; inhibition at 10 µM [36]: 46.5%; inhibition at 10 µM [37]: 6.8%
C=CCn1c(SC/C(=N\O)c2ccccc2)nnc1-c1c[nH]c2ccccc12 [Compound 7a, (Z)-2-((4-Allyl-5-(1H-indol-3-yl)-4H-1,2,4-triazol-3-yl)thio)-1-phenylethanone Oxime]	-6.67%	3.82%	-3.51%	6.71%	0.66%	2.04%	-5.82%	5.6%	0.84%	9.24%	4.41%	9.34%	9.66%	5.73%	-3.61%	3.29%	-2.55%	-13.4%	-2.96%	3.9%	inhibition at 10 µM [21]: 15.4%; inhibition at 10 µM [22]: 2.51%; inhibition at 10 µM [23]: -0.17%; inhibition at 10 µM [24]: 4.48%; inhibition at 10 µM [25]: -14.9%; inhibition at 10 µM [26]: -8.19%; inhibition at 10 µM [27]: -7.26%; inhibition at 10 µM [28]: 12.4%; inhibition at 10 µM [29]: -4.36%; inhibition at 10 µM [30]: -6.77%; inhibition at 10 µM [31]: 2.21%; inhibition at 10 µM [32]: 2.4%; inhibition at 10 µM [33]: 6.82%; inhibition at 10 µM [34]: -10.3%; inhibition at 10 µM [35]: 0.27%; inhibition at 10 µM [36]: 8.67%; inhibition at 10 µM [37]: -13.1%
O=C(CSc1nnc(-c2c[nH]c3ccccc23)n1-c1ccccc1)c1ccc(Cl)cc1 [Compound 6j, 2-((5-(1H-indol-3-yl)-4-phenyl-4H-1,2,4-triazol-3-yl)thio)-1-(4-chlorophenyl) Ethenone]	62.5%	42.5%	30.2%	35.5%	7.26%	57.4%	11.6%	74.4%	21.9%	54.2%	26.7%	11.1%	53%	66.8%	57.4%	31%	21.3%	19.4%	61.6%	48.3%	inhibition at 10 µM [21]: 53.6%; inhibition at 10 µM [22]: -3.56%; inhibition at 10 µM [23]: 41.3%; inhibition at 10 µM [24]: 33%; inhibition at 10 µM [25]: 26.1%; inhibition at 10 µM [26]: 85.1%; inhibition at 10 µM [27]: 30.6%; inhibition at 10 µM [28]: 45%; inhibition at 10 µM [29]: 31.7%; inhibition at 10 µM [30]: 66.3%; inhibition at 10 µM [31]: 27.9%; inhibition at 10 µM [32]: 35.4%; inhibition at 10 µM [33]: 60%; inhibition at 10 µM [34]: 7.63%; inhibition at 10 µM [35]: 29.7%; inhibition at 10 µM [36]: 45.4%; inhibition at 10 µM [37]: 27.7%
